Holding throughout (type): cell-based
One data set concerns the target T1, hGAT1 (Homo sapiens, UniProt P30531).
T1 construct: expressed in transfected cells
The data set can be described thus: [3H]GABA uptake assay, CHO cells stably expressing hGAT1.

For another data set, the target named is T2, hGAT2 (Homo sapiens, UniProt Q9NSD5).
T2 construct: expressed in transfected cells
T2 sequence (Q9NSD5 1-602): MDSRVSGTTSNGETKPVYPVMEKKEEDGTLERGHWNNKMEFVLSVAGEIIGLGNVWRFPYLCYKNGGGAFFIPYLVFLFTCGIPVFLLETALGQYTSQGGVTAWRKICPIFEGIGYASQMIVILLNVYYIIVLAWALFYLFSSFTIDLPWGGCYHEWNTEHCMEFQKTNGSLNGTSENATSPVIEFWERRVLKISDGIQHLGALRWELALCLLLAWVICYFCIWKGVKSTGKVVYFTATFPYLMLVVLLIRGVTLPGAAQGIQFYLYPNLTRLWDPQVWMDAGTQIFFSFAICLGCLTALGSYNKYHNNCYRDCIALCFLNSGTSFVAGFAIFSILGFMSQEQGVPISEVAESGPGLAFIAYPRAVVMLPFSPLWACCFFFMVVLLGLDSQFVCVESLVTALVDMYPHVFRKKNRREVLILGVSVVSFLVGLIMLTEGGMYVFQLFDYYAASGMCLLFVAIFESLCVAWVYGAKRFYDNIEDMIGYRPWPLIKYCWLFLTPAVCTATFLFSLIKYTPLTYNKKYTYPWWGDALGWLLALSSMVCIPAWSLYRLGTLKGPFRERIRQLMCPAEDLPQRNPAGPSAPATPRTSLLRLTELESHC
The data set can be described thus: [3H]GABA uptake assay, CHO cells stably expressing hGAT2.

In the next data set the target is T3, hBGT1 Q299L (Homo sapiens, UniProt P48065, Q299L).
T3 construct: HA; expressed in transfected cells; host or cells: tsA201 cells (transformed HEK293), transient expression
T3 sequence (P48065 1-614 Q299L): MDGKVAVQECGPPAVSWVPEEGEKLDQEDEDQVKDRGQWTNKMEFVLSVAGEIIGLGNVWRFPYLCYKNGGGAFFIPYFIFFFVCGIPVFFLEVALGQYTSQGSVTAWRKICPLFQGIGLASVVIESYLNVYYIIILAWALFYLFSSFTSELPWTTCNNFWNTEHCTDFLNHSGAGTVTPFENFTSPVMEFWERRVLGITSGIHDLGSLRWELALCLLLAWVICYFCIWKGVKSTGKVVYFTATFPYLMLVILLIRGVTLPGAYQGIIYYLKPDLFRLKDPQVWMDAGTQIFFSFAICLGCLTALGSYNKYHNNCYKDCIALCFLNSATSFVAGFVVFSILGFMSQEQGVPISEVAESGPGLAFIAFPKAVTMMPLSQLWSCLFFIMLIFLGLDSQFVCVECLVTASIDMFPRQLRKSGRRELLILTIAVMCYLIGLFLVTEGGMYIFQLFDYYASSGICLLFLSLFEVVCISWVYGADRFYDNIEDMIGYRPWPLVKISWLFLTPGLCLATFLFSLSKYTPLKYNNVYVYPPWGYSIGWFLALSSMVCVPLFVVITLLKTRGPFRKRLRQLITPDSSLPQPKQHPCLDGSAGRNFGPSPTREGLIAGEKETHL
Briefly: [3H]GABA uptake assay, hBGT1 mutant Q299L in tsA201 cells. As to the method: To validate the molecular modeling, particularly the crucial interactions with the Glu52 and Gln299 residues, the activity of compound 9 was tested on the following hBGT1 mutants: E52A, E52Y, Q299L, and the double mutant E52A+Q299L (Figure 5 and Table 1).[14]
The CHO cells were placed in 96-well plates (approximately 50,000 cells/well) for about 24 h before the experiment. […] After incubation, cells were washed 3 times with 100 μL/well ice-cold assay buffer, 150 μL/well MicroScint20 (PerkinElmer) was subsequently added before the plate was shaken for at least 1 h. The radioactivity of each well of the plate was measured on a TopCount NXT scintillation counter. […] Data presented are the pooled data of at least three independent experiments with three technical replicates if not stated otherwise in figure legends. Concentration–response curves were fitted by nonlinear regression to the sigmoidal concentration–response model with GraphPad Prism v 9.0.
The tsA201 cell line (a transformed HEK293 cell line) has been described previously and was cultured accordingly.[20] The tsA201 cells used for transient expression of hBGT1 mutants were transfected with DNA constructs (8 μg per 10 cm plate) using 40 μL of PolyFect transfection reagent according to the manufacturer’s protocol (Qiagen). […]

Data set [1] has as its system normal human astrocytes (NHA). Briefly: WST-1 viability and proliferation assay on normal human astrocytes. The conditions noted are these: 1–100 μM in culture medium; 24 and 48 h. As to the method:
Taking into account the presence of BGT1 and GAT3 transporters in astrocytes, we studied the effect of compound 9 on astrocyte viability, proliferation, and homeostasis. Normal human astrocytes (NHA) were treated with 1–100 μM compound 9 in a culture medium. The WST-1 assay was used to determine the number of metabolically active cells after 24 and 48 h of incubation. […] In the next step, a higher concentration (500 μM) of the compound and a longer incubation time (72 h) were applied, and the cells were examined by phase-contrast microscopy. […] Considering the results shown in Figure 6, compound 9 was not cytotoxic toward human astrocytes under in vitro culture conditions.
Gibco Human Astrocytes (Thermo Fisher Scientific) were maintained in a humidified 5% CO2 incubator at 37 °C. The cells were cultured in Gibco Astrocyte Medium (DMEM with GlutaMAX, N-2 Supplement, and OneShot Fetal Bovine Serum) supplemented with penicillin G (100 U/mL), neomycin (10 μg/mL), and amphotericin B (0.25 μg/mL).
The effect of compound 9 on cell viability and cell proliferation was evaluated using a WST-1 assay (Roche GmbH, Mannheim, Germany) based on the cleavage of the WST-1 reagent into formazan by mitochondrial dehydrogenases in metabolically active (viable) cells. […] The absorbance was measured at 440 and 650 nm using a microplate reader Infinite 200 PRO (TECAN).

T1 sequence (P30531 whole entry): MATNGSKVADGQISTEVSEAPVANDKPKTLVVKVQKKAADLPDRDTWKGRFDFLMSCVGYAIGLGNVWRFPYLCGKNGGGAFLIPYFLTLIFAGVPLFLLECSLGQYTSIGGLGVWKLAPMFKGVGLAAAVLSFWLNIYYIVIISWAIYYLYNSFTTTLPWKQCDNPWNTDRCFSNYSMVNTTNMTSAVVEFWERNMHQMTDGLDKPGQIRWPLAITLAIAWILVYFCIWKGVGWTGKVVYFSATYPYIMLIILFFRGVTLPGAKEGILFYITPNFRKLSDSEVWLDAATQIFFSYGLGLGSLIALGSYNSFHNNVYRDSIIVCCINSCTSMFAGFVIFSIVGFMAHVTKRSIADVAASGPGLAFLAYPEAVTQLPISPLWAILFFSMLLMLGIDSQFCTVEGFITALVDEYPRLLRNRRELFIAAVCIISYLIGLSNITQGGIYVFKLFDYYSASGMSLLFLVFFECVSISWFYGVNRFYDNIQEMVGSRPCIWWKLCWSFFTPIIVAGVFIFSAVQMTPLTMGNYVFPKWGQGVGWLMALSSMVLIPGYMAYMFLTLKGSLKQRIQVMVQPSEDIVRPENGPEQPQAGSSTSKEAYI

As for `NC12CC(C(=O)O)(C1)C2` [Compound 9], the values for the IC50 on hGAT1, on hGAT2 and against hBGT1 Q299L were over 100 µM, over 100 µM and 73.5 µM, respectively. Also, at hGAT1 (100 μM, CHO cells), the “inhibitory effect on [3H]GABA uptake” value is “no inhibitory effect”. The inhibition at 100 µM on hGAT2 (CHO, read-out: inhibition of GABA uptake) was about 25%. Further, the “decrease in activity compared with wild type hBGT1” value at hBGT1 Q299L (Q299L vs wt) is “more than 2 fold”. The “effect on astrocyte survival and proliferation (WST-1)” value in data set [1] was “no effect on astrocyte survival and proliferation”.

Values taken from article PMC11587516 (ACS Chemical Neuroscience, 2024).
